Measured values reported in patent US11510928B2, “Use of mirtazapine in the treatment of inflammatory disorders, autoimmune disease and PBC” (UTI Limited Partnership, priority 2017, dated 2022).

Tests used:
hepatic immune cells = assay: Hepatic immune cell phenotyping by flow cytometry after mirtazapine treatment; format: in vivo, mouse
Experimental: Male 8-10 week old C57BL/6 mice (Jackson Labs, Bar Harbor, Me.) were used. All procedures were approved by the University of Calgary Animal Care Committee (protocol numbers AC14-0129 and AC14-0128) and were performed in accordance with the guidelines of the Canadian Council on Animal Care. To delineate the impact of mirtazapine treatment upon liver immune cell numbers and phenotype, and upon cytokine/chemokine networks within the liver, mice were treated with mirtazapine 1-20 mg/kg intraperitoneally^13-15. Mirtazapine was suspended in 1% aqueous solution of Tween 80, whereas the control group received 1% aqueous solution of Tween 80. […] The detailed experimental protocols, lists of antibodies and reagents used, flow cytometry gating, and immune cell phenotyping strategies, are described herein. […] Isolated hepatic leukocytes were subjected to direct immunofluorescence analyses using multicolor flow cytometry staining as previously described. Samples were acquired either using a FACScan flow cytometer (Becton Dickinson, Mountain View, Calif.) or AttuneTM Acoustic Focusing flow cytometer (Applied Biosytems, […], Burlington, ON). Data were analyzed using FlowJo® software (Treestar, Ashland, Oreg.). Gating proceeded as follows: gating of live cells and exclusion of duplet cells followed by gating on forward scatter (FSC) and side scatter (SSC) areas to identify regions appropriate to define live leukocytes. Within the leukocyte gate, the following cell subsets were identified: Regulatory T cells (CD4^+CD25^+Foxp3^+), monocytes (CD11b^+Ly6C^+), dendritic cells (CD11b^+CD11c^+), B Cells (CD3^-IgM^+), B1a B cells (IgM^+CD5^+CD^11b^+), B1b B cells (IgM^+CD5^-CD11b^+), and B2 B cells as (IgM^+CD5^-CD11b^-). Fluorescence-minus-one (FMO) controls were used for the accurate designation of cells with fluorescence above background levels. Appropriate isotype controls were used to determine the specificity of all antibodies used. Cell numbers were calculated based on the percentage of cells found in the gate of interest, and total cell numbers isolated from each liver.

[1] = test system: hepatic macrophages (Kupffer cells), monocytes and B cells; assay: Intravital microscopy (IVM) of liver after mirtazapine treatment; format: in vivo, mouse
From the text: Rationale and Relevant Preliminary Data: The normal liver macrophage pool consists of a large self-renewing, non-migratory population of KCs that are important for maintaining tissue homeostasis^1-3. KCs are situated within the sinusoidal blood flow and are an essential component of hepatic innate immunity, playing key roles in inflammation and defense^2, 4. In addition, KCs fulfill homeostatic functions important for normal liver physiology5. KCs are capable of considerable phenotypic plasticity and are highly sensitive to changes within the hepatic environment, including cytokines^2, 4, 6, 7. In response to environmental cues, KCs are activated and can be polarized along a spectrum between M1-like (induced by IFNγ, TNFα, IL-1β, IL-12, TLR4 agonists) and M2-like (induced by IL-4, IL-13, IL-10) phenotypes^2, 4, 6, 7, and can dynamically shift between these phenotypic extremes in response to changes in their microenvironment^1, 2, 4, 8. This shift is critical for regulating inflammatory and repair processes in the liver^1, 8, 9.

[2] = Liver injury after mirtazapine alone (serum ALT, histology); format: in vivo, mouse; conditions: data not shown
Experimental: Male 8-10 week old C57BL/6 mice (Jackson Labs, Bar Harbor, Me.) were used. All procedures were approved by the University of Calgary Animal Care Committee (protocol numbers AC14-0129 and AC14-0128) and were performed in accordance with the guidelines of the Canadian Council on Animal Care. To delineate the impact of mirtazapine treatment upon liver immune cell numbers and phenotype, and upon cytokine/chemokine networks within the liver, mice were treated with mirtazapine 1-20 mg/kg intraperitoneally^13-15. Mirtazapine was suspended in 1% aqueous solution of Tween 80, whereas the control group received 1% aqueous solution of Tween 80. Blood and liver samples were collected 5 hours post-mirtazapine treatment (or 16 hours post-Con A treatment). The detailed experimental protocols, lists of antibodies and reagents used, flow cytometry gating, and immune cell phenotyping strategies, are described herein.
To assess liver injury, plasma alanine aminotransferase (ALT) activity was measured (Roche-Hitachi Modular-P800 apparatus; Roche, Mannheim, Germany). Additionally, formalin-fixed liver tissue slices were stained with Hematoxylin and Eosin (H&E) for microscopic examination. Extent of liver parenchymal necrosis was quantitated as previously described, using an Olympus XC10 camera (acquired using the Olympus VS-ASW software package; original magnification ×400). […]

circulating TNFα = conditions: patients with major depressive disorder; cited from earlier work
[3] = test system: peripheral blood and splenic B cells; assay: Peripheral blood and splenic B cells by flow cytometry (Example 6); format: in vivo, mouse; conditions: 20 mg/kg ip, 5 hrs post-treatment
Experimental: Male C57BL/6 mice (age 8-10 wks) were treated with mirt (20 mg/kg ip) or vehicle and livers removed 3-5 hrs later for B cell isolation and characterization by flow cytometry (FACS). Similarly peripheral blood and splenic B cells numbers were determined by FACS. Liver cytokine and chemokine levels were measured by Luminex®.

[4] = 20 mg/kg ip, 3 hrs post-treatment

CN1CCN2c3ncccc3Cc3ccccc3C2C1 (stereo not drawn) [Mirtazapine]
Cellular expression levels of FOXP3 in hepatic Tregs (MFI) (hepatic immune cells; [4]): enhanced cellular expression levels of FOXP3
Hepatic CD11b+CD11c+ dendritic cells as % of total CD11b+ cells (hepatic immune cells; [4]): relatively enriched
Numbers of Tregs (CD4+CD25+FOXP3+) within the liver (hepatic immune cells; [4]): significantly increased numbers of Tregs
Hepatic numbers of CD73 expressing T cells (CD3+CD73+) (hepatic immune cells; 5 hr (FIG. 11)): increases hepatic numbers of CD73 expressing T cells
CXCR3+CD73+ B1a cells in the liver (hepatic immune cells; 5 hrs post-treatment): significantly increased recruitment
Expression intensity of FOXP3 per cell (MFI) (hepatic immune cells; 5 hrs post-treatment): significantly increased
Hepatic B1a cells (hepatic immune cells; 5 hrs post-treatment): significant increase
Hepatic B1b cells (hepatic immune cells; 5 hrs post-treatment): remained unchanged
Hepatic B2 cells (hepatic immune cells; 5 hrs post-treatment): decrease
Increase in hepatic numbers of CD4+CD25+FOXP3+ T cells (Tregs) (hepatic immune cells; 5 hrs post-treatment): ~2 fold
Reduction of hepatic LY6Chi monocyte population (hepatic immune cells; 5 hrs post-treatment): ~2.5 fold
Total hepatic leukocyte numbers (CD45+) (hepatic immune cells; 5 hrs post-treatment): did not alter total overall hepatic leukocyte numbers
Total numbers of hepatic monocytes (CD11b+LY6C+) (hepatic immune cells; 5 hrs post-treatment): significant reduction
Hepatic numbers of repair monocytes (CD11b+Ly6Clow) (hepatic immune cells; 5 hrs post-treatment (FIG. 4H)): significantly reduces
CXCL10 expression in hepatic monocytes and dendritic cells (MFI) (hepatic immune cells; flow cytometry, vs vehicle): increased CXCL10 expression
Hepatic CD11b+Ly6Chi (inflammatory) monocytes (hepatic immune cells; pilot study, 20 mg/kg, 4 hrs): rapid striking reduction
Hepatic CD11b+Ly6Clo (anti-inflammatory/repair) monocyte numbers (hepatic immune cells; pilot study, 20 mg/kg, 4 hrs): no change
Interactions between hepatic B cells (CD19+) and hepatic macrophages (F4/80+) ([1]; 20 mg/kg, 3 hrs post-treatment, preliminary data): trend towards increased interactions
Kupffer cell (F4/80+) activation: retraction of cellular processes, rounding of cell shape ([1]; 1 hr after treatment (FIG. 14)): activation of KCs
Hepatic monocyte populations in CCR2RFP/+CX3CR1GFP/+ reporter mice ([1]; ~20 hrs post-treatment, pilot study): apparent increase in overall hepatic monocyte numbers coupled with the appearance of CCR2+CX3CR1+ double positive monocytes
Liver injury as reflected by serum ALT levels or histology [2]: did not induce liver injury
Circulating TNFα levels (circulating TNFα): increased circulating TNFα levels
Peripheral blood B cells (as % of total CD45+ leukocytes) [3]: highly significant drop
Splenic B cell numbers [3]: paralleled by similar changes
